Laboratory results: the NIST ThermoML archive (doi:10.1016/j.jct.2009.06.019)

Tests used:
[1] = 101.33 kPa, Liquid, Vibrating tube method
[2] = xn = mol fraction of the nth substance listed; conditions: 101.3 kPa, Liquid, Vibrating tube method

CN1CCN(C)C1=O [1,3-dimethyl-2-imidazolidinone]
[1]
Conditions	mass density [kg/m3]
278.15 K	1069.3
288.15 K	1060.43
298.15 K	1051.6
308.15 K	1042.79
313.15 K	1038.38
318.15 K	1034

CN1CCN(C)C1=O [1,3-dimethyl-2-imidazolidinone] + O
mass density [kg/m3], [2]
Conditions	278.15 K	288.15 K	298.15 K	308.15 K	313.15 K	318.15 K
x1 = 0.000904	1000.51	999.59	997.49	994.45	992.61	990.61
x1 = 0.001349	1000.75	999.82	997.72	994.65	992.81	990.8
x1 = 0.001765	1000.99	1000.04	997.92	994.84	992.99	990.96
x1 = 0.002486	1001.42	1000.44	998.29	995.19	993.33	991.29
x1 = 0.003566	1002.08	1001.05	998.84	995.7	993.82	991.77
x1 = 0.004326	1002.53	1001.45	999.22	996.05	994.15	992.09
x1 = 0.005478	1003.25	1002.09	999.81	996.59	994.68	992.59
x1 = 0.006268	1003.72	1002.53	1000.22	996.97	995.04	992.94
x1 = 0.006996	1004.16	1002.93	1000.57	997.3	995.36	993.25
x1 = 0.008039	1004.82	1003.54	1001.14	997.82	995.85	993.72
x1 = 0.008854	1005.33	1004.01	1001.57	998.22	996.23	994.08

CN1CCN(C)C1=O [1,3-dimethyl-2-imidazolidinone] + [2H]O[2H]
mass density [kg/m3], [2]
Conditions	278.15 K	288.15 K	298.15 K	308.15 K	313.15 K	318.15 K
x1 = 0.001014	1105.53	1105.7	1104.24	1101.46	1099.65	1097.62
x1 = 0.001853	1105.6	1105.72	1104.2	1101.34	1099.52	1097.48
x1 = 0.002463	1105.67	1105.72	1104.15	1101.29	1099.44	1097.38
x1 = 0.003372	1105.77	1105.73	1104.13	1101.19	1099.33	1097.23
x1 = 0.004298	1105.89	1105.78	1104.08	1101.13	1099.22	1097.09
x1 = 0.004982	1105.97	1105.83	1104.06	1101.05	1099.13	1097.01
x1 = 0.006229	1106.16	1105.89	1104.06	1100.95	1099	1096.83
x1 = 0.007163	1106.33	1105.96	1104.06	1100.89	1098.91	1096.72
x1 = 0.008054	1106.48	1106.05	1104.07	1100.87	1098.85	1096.62
x1 = 0.009084	1106.65	1106.13	1104.08	1100.81	1098.77	1096.51
x1 = 0.01051	1106.96	1106.33	1104.16	1100.77	1098.67	1096.37

[2H]O[2H] [water-d2] + CN1CCN(C)C1=O
[2], x2 = 0
Conditions	mass density [kg/m3]
278.15 K	1105.46
288.15 K	1105.7
298.15 K	1104.31
308.15 K	1101.59
313.15 K	1099.83
318.15 K	1097.81
